According to patent US12577232B2, “N-heterocycle substituted tryptamine derivatives and methods of using” (ENVERIC B[…] INC., priority 2024, dated 2026):
“And” between values parts separate entries of the source, which are not always exact repeats. Equal values may be shown once. Read-outs that look alike come from different tables or passages of the source.

Columns and labels:
[1] = molecular target: T1, 5-HT2A receptor (Homo sapiens, UniProt P28223); experiment: 5-HT2A receptor radioligand competition assay (SPA, [3H]ketanserin); type: binding; settings: 1 nM [3H]ketanserin; membranes containing 5-HT2A; read-out: 5-HT2A, Ki
T1 construct: purchased PerkinElmer ES-313-M400UA
Experimental: Competition assays were performed as for 5-HT1A assays with the following differences. […] Determination of non-specific binding was carried out in the presence of […] of spiperone (S7395-250MG, Sigma-Aldrich). Equilibrium binding constant for ketanserin (Kd) was determined from saturation binding curves using the ‘one-site saturation binding analysis’ method in GraphPad PRISM software (Version 9.2.0).

[2] = Mouse plasma pharmacokinetics (PK) survey; type: in vivo; settings: for AUC: male, C57BL6, mouse, read-out: AUCt0-tlast; for AUC / Cmax: ip; for Cmax: mouse
Experimental: The purpose of the study was to gain insight into the pharmacokinetic (PK) behaviour of drugs in rodents. In some contexts, drug exposure and other PK parameters may be linked to the onset and/or degree of drug efficacy. Toward the goal of assessing PK behaviour, objectives included the collection of plasma from male mice at various times after (1) a single ‘low’ IP (intraperitoneal) dose (4 mg/kg), and (2) a single ‘high’ IP dose (10 mg/kg) of drug for pharmacokinetic monitoring. The experiment was designed to enable the determination of key parameters (e.g., Cmax, AUC) and was conducted in partnership with Inotiv (Boulder, Colorado; www.inotiv.com; Studies 3533-2302132 and 3533-2302538).
The study which took part in two phases (No. 3533-2302132 and 3533-2302538) was conducted by CRO Inotiv (Boulder, CO) and was performed in accordance with the test facility standard operation procedures (SOPs), the World Health Organization Quality Practices in Basic Biomedical Research guidelines, and in compliance with all US state and federal regulations, including USDA Animal Welfare Act 9 CFR Parts 1-3. Federal Register 39129, Jul. 22, 1993. All mice were male, belonging to stain C57BL6 (supplier Envigo). Upon arrival at the facility, the mice were 6 weeks old and were acclimated 7 days prior to injection with food and water ad libitum (3 animals/cage).
Three cohorts of mice were included (n=6 per cohort): (1) control (vehicle treatment), (2) 4 mg/kg compound (XV), and (3) 10 mg/kg compound (XV). On day 0 of the study, animals were randomized into cohorts based on body weight. Dosing (i.p. dose route) was performed on Day 1. Sampling of plasma was performed under anesthesia (inhaled isoflurane) on 3 of 6 animals per cohort at 6 time points (15 min 30 min, 1 h, 2 h, 4 h, and 6 h post-dose) followed by sacrifice at 8 h post-dose, ex-sanguination and final plasma collection. Whole blood (100 μL) was collected for plasma preparation using K2EDTA on ice (centrifugation within 5 min of collection), for a final plasma volume of 50 μL. Samples were stored at −80° C. until analysis.
Bioanalytical analysis of plasma was carried out using standard LC-MS/MS procedures. Prior to analysis of plasma, drug-specific quantification metrics (e.g., standard curve, LOD, Rt) were pre-established using authentic standard (>95%). Calculated concentrations (ng/mL) of analyte were used to determine PK parameters (Cmax, AUC) within the limits of detection (LOD).

[3] = plasma, 4 mg/kg, male C57BL6 mice, plasma, 4 mg/kg i.p.
[4] = plasma, 10 mg/kg, male C57BL6 mice, plasma, 10 mg/kg i.p.
[5] = male C57BL6 mice, plasma, 4 mg/kg i.p.
[6] = male C57BL6 mice, plasma, 10 mg/kg i.p.

T1 sequence (P28223 whole entry): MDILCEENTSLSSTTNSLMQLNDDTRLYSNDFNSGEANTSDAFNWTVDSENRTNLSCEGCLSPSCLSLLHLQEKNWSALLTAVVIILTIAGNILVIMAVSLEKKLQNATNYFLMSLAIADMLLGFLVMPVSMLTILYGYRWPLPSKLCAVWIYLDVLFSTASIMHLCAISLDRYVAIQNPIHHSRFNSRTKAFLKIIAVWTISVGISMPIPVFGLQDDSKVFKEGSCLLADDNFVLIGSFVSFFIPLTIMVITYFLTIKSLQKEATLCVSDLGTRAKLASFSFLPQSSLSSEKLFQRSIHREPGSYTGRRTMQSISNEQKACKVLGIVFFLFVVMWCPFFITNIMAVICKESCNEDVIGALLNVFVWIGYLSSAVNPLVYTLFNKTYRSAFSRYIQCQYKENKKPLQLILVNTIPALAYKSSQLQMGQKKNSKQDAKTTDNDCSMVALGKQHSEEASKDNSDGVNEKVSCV

| SMILES | Ki [1] | AUC [2, 3] | AUC [2, 4] | detectability in plasma ([2]; most mice, eight hours post-administration, i.p.) | Cmax [2, 5] | Cmax [2, 6] | AUCt0-tlast ([2]; male C57BL6 mice, plasma, 4 mg/kg i.p., 4 mg/kg) |
| --- | --- | --- | --- | --- | --- | --- | --- |
| CN(C)CCc1c[nH]c2cc(F)cc(N3CCOCC3)c12 [Compound (XV)] | 0.72 µM | 241 ± 71.6 ng·h/mL | 590 ± 30.9 ng·h/mL | still detectable | 101 ± 4.9 ng/mL | 459 ± 16.4 ng/mL |  |
| CN(C)CCc1c[nH]c2cc(N3CCCC3)cc(F)c12 [Compound (XVIII)] | 6.13 µM | 19.6 ± 0.7 ng·h/mL | 76.4 ± 11.5 ng·h/mL |  | 8.8 ± 1.2 ng/mL | 87.5 ± 8.5 ng/mL |  |
| CN(C)CCc1c[nH]c2cc(N3CCC3)ccc12 [Compound (XII)] | 23.7 µM | 39.7 ± 3 ng·h/mL | 145 ± 5.3 ng·h/mL |  | 92.8 ± 17.2 ng/mL | 302 ± 33.7 ng/mL |  |
| CC(C)N(C)CCc1c[nH]c2cc(N3CCOCC3)c(F)cc12 [Compound (XVII)] | 8.3 µM and 8.34 µM | 24.2 ± 1.6 ng·h/mL | 164 ± 7.2 ng·h/mL |  | 62.1 ± 3.9 ng/mL | 384 ± 14.2 ng/mL | 27.2 ± 1.6 ng·h/mL |
